Data taken from patent publication US20260108615A1, “SELF-ASSEMBLED MUCOADHESIVE BIOPOLYMER PARTICLE RELEASE SYSTEM AND PREPARATION METHOD THEREOF” (SZEGEDI TUDOMÁNYEGYETEM, priority 2021, published 2026).

Key:
Format in all cases: physicochemical
[1] = in-vitro drug-releasing profile of KETO; conditions: FIG. 17
[2] = in vitro DOX release through cellulose membrane into PBS buffer
Protocol: The DOX release was measured according to the following: the in vitro experiments of the DOX releasing were performed using a cellulose membrane (Sigma-Aldrich, avg. flat width 10 mm (0.4 in.)). The released DOX amount from the bare and conjugated form was spectrophotometrically measured by monitoring the change in the intensity of the characteristic absorbance peak of DOX at λ=481 nm. DOX concentration is directly proportional to the maximal absorption values estimated at 481 nm [CDOX (mg/ml) (A at 481 nm)/18.836; R^2=0.996], according to the calibration curve previously determined within the range of 0-0.066 mg/ml. Solid powder of pure drug and conjugated form (corresponding to 0.045 mg/ml of DOX) were inserted in a cellulose membrane that was closed and dropped into 20 ml of a PBS buffer solution with pH=7.4 (37° C.; 0.9 wt % NaCl content). 3 ml of the aqueous solution was pulled from the release media at selected interval times and DOX concentration was measured. The release profiles of DOX released from different forms are shown in FIG. 14a in percent form and FIG. 14b in concentration form, releasing from the bare DOX was too fast a process with a maximum releasing percent of 78%. […] According to Table 2, releasing from the bare DOX data were fitted with the Higuchi model that describes the drug release a diffusion process based on Fick's law which is square root time-dependent, assumes the diffusivity of the drug is constant.

[3] = in-vitro drug-releasing profile of HBA; conditions: FIG. 18

Structure (SMILES): CC(C(=O)O)c1cccc(C(=O)c2ccccc2)c1 (stereo not shown) [bare KETO, ketoprofen]
- KETO releasing process [1]: fast releasing process for the first 5 h

Structure (SMILES): COc1cccc2c1C(=O)c1c(O)c3c(c(O)c1C2=O)C[C@@](O)(C(=O)CO)C[C@@H]3O[C@H]1C[C@H](N)[C@H](O)[C@H](C)O1 [Pure DOX, doxorubicin]
- concentration of DOX in PBS buffer solution after one day (decomposition) ([2]; PBS at 37° C., after one day of release): continuously decreased
- maximum releasing percent ([2]; PBS pH=7.4, 37° C., 0.9 wt % NaCl, cellulose membrane): 78%
- First-order model k ([2]; fit of DOX release data): 0.2689
- Higuchi model k ([2]; fit of DOX release data): 36.808
- Hixson-Crowell model k ([2]; fit of DOX release data): 0.0063
- Korsmeyer-Peppas model k ([2]; fit of DOX release data): 26.18
- Korsmeyer-Peppas model n (release exponent) ([2]; fit of DOX release data): 0.763
- Zero-order model k ([2]; fit of DOX release data): 13.11

Structure (SMILES): OCc1ccc(O)cc1 [Bare HBA, 4-hydroxybenzyl alcohol]
- HBA releasing process [3]: very rapid release process for the first 3 h
